Measured values reported in publication PMC5593877, “Identification of endoxylanase XynE from Clostridium thermocellum as the first xylanase of glycoside hydrolase family GH141” (Scientific Reports, 2017).

Biological target: T1, Xyn141E (Acetivibrio thermocellus, UniProt A3DHG8)
T1 construct: gene Cthe_2195
Assay: HPAEC-PAD of hydrolysis products
Format: biochemical
Details: 200 µg/mL substrate, 100 µg/mL enzyme, 10 mM MOPS pH 6.5, 50 mM NaCl, 10 mM CaCl2, 60 °C, 16 h

T1 sequence (A3DHG8 entry or part of it): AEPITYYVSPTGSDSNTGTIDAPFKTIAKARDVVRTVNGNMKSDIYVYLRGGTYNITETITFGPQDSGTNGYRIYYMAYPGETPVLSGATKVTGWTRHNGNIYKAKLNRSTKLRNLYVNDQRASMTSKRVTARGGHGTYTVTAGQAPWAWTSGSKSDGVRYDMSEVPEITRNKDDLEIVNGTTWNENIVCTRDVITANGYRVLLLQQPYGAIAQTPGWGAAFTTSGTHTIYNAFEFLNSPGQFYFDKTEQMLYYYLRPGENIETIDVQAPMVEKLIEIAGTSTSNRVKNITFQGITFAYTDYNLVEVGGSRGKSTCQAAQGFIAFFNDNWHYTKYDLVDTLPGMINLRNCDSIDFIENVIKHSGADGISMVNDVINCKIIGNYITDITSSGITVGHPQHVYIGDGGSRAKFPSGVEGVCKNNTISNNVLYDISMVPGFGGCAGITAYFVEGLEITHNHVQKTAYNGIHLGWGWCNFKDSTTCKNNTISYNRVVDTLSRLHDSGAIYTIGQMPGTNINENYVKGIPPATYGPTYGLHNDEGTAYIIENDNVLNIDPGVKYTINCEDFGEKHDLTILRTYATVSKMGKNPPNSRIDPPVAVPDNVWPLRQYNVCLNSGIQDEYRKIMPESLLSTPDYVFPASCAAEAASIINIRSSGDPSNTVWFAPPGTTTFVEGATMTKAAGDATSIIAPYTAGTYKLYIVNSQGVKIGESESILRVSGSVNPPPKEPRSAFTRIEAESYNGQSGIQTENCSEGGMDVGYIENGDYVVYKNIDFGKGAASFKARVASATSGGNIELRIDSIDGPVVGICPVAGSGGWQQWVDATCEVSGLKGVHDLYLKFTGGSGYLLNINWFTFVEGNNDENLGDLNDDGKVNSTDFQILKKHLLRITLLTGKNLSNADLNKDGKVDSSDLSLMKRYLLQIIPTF

Structure (SMILES)	HPAEC-PAD of hydrolysis products
OC1OC[C@@H](O[C@@H]2OC[C@@H](O[C@@H]3OC[C@@H](O[C@@H]4OC[C@@H](O)[C@H](O)[C@H]4O)[C@H](O)[C@H]3O)[C@H](O)[C@H]2O)[C@H](O)[C@H]1O (some centres unmarked) [X4, xylotetraose]	Xyn141E was able to hydrolyse X5 and X4 to X2 and X3 or X2, respectively.
OC1OC[C@@H](O[C@@H]2OC[C@@H](O[C@@H]3OC[C@@H](O[C@@H]4OC[C@@H](O[C@@H]5OC[C@@H](O)[C@H](O)[C@H]5O)[C@H](O)[C@H]4O)[C@H](O)[C@H]3O)[C@H](O)[C@H]2O)[C@H](O)[C@H]1O (some centres unmarked) [X5, xylopentaose]	Xyn141E was able to hydrolyse X5 and X4 to X2 and X3 or X2, respectively.
